This is an account of results in US4322496A, “Inhibition of lactate oxidase” (Eastman Kodak Company, priority 1980, dated 1982).

Like-named read-outs stand apart in the source and are kept apart here.

The term inhibition denotes the percentage by which the read-out fell short of the control.

For one assay, the target named is T1, L-Lactate Oxidase (Enterococcus casseliflavus, UniProt C9AC47).
T1 sequence (C9AC47 1-367): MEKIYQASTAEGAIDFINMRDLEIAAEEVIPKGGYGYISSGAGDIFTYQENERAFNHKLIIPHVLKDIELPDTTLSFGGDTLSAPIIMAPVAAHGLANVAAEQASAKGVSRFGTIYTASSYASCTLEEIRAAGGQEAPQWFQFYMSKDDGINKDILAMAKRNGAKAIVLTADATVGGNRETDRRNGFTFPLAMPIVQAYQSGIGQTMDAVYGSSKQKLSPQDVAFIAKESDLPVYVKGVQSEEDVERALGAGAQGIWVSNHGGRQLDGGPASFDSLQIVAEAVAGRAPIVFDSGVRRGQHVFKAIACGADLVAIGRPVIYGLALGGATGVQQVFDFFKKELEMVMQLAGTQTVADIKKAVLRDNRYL
Description: biochemical. As to conditions: for inhibition of the enzymatic activity of lactate oxidase: measured at 30° C.; for inhibition at 10000 µM: acid 10mM, read-out: LO % Inhibition. On the procedure: (§1) In the examples, oxidative enzymes were prepared from Streptococcus faecium ATCC 12755. L-lactate oxidase was isolated from Streptococcus faecium as a 0-50% ammonium sulfate fraction as described in Esders et al., U.S. Pat. No. 4,166,763 issued Sept. 4, 1979. L-α-glycerophosphate oxidase was purified from Streptococcus faecium as described in Table V, of Research Disclosure Publication No. 16146 published Sept. 10, 1977.
In the examples, enzyme assays for lactate oxidase were carried out as follows: Assay reaction mixtures contained in a total volume of 1.0 ml: 100 μmoles potassium phosphate buffer, pH 7.0, 25 μmoles lactic acid, […] horseradish peroxidase (4.6 purpurogallin units), and 0.25 μmoles orthodianisidine. Compounds to be tested as potential inhibitors for lactate oxidase were added to the assay reaction mixtures as indicated in Example 1. Samples were equilibrated at 30° C. and then reactions were initiated by addition of Streptococcus faecium lactate oxidase. Absorbance at 430 nm was measured in a Beckman 25 spectrophotometer. Initial rates were calculated from the linear portion of the curve.

Assay [1] concerns the target T2, beef meat lactate dehydrogenase (Bos taurus, UniProt P19858).
T2 construct: beef meat lactate dehydrogenase; from tissue; host or cells: beef meat (skeletal muscle)
As to the kind of experiment: LDH assay reaction mixture (pyruvate/NADH). The following applies: acid 10 mM; pH 7.5. The assay is classed as biochemical. The method, then:
The effect of these acids on LO was evaluated by studying an LO assay reaction mixture having the composition described above. The effect of these acids on LDH was evaluated by studying an LDH assay reaction mixture which contained in a total volume of 1.0 ml: 50 μmoles potassium phosphate buffer (pH 7.5); 1 μmole sodium pyruvate; 0.13 μmole NADH; 0.02 μg beef meat lactate dehydrogenase (320 U/mg) and the acid at a concentration of 10 mM. In the absence of acid, the rate of reaction was assumed to be 100% and the percent inhibition of each reaction was calculated accordingly.

Assay [2] concerns the target T3, L-α-Glycerophosphate Oxidase (Enterococcus casseliflavus, UniProt O86963).
T3 construct: L-α-glycerophosphate oxidase was purified from Streptococcus faecium; made in house; host or cells: Streptococcus faecium ATCC 12755 (native organism, not recombinant)
T3 sequence (O86963 1-609): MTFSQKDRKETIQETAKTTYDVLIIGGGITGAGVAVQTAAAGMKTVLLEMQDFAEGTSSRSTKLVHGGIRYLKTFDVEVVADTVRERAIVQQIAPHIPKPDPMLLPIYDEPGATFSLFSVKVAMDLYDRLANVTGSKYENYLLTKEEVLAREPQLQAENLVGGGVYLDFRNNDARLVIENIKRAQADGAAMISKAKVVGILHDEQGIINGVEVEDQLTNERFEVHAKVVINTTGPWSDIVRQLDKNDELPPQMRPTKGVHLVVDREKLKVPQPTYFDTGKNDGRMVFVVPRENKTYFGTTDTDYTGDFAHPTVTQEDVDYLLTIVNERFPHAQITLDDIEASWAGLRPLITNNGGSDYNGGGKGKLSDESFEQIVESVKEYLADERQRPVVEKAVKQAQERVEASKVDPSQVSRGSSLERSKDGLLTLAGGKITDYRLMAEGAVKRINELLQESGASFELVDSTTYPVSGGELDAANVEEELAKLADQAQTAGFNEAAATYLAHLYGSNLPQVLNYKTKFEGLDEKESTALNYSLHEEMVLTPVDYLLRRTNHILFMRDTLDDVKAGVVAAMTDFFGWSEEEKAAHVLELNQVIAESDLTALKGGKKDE
As to the kind of experiment: L-α-glycerophosphate oxidase enzyme assay (absorbance at 430 nm). It counts as biochemical. As to conditions: for inhibition at 5000 µM: compound at 5 mM, 37° C., pH 7.0, read-out: L-α-Glycerophosphate Oxidase Percent Inhibition. The method, then:
as §1, with “1977. Extensively purified L-α-glycerophosphate oxidase (material carried through the whole purification sequence) contained L-α-glycerophosphate:lactate oxidase activity ratios of (1700-3000:1), whereas the partially purified L-α-glycerophosphate oxidase (material isolated as the 50-80% ammonium sulfate fraction) contained L-α-glycerophosphate:lactate oxidase activity ratios of 30-100:1.” for “1977.”
In the examples, enzyme assays for L-α-glycerophosphate oxidase were carried out as follows: Assay reaction mixtures contained in a total volume of 1.0 ml: 100 μmoles potassium phosphate buffer, pH 7.0, 66 μg orthodianisidine, 25 μg horseradish peroxidase (4.6 purpuragallin units) and 200 μmoles DL-α-glycerophosphate (at pH 7.0). Compounds to be tested as potential inhibitors were added to the reaction mixtures as indicated in Example 1. Samples were equilibrated at 37° C. and the reactions were initiated by the addition of an aliquot of enzyme. Absorbance at 430 nm was measured in a Beckman 25 spectrophotometer. Initial rates were calculated from the linear portion of the curve.

Setting [3] is: compound at 5 mM, 30° C., pH 7.0, rate without compound = 100%, read-out: L-Lactate Oxidase Percent Inhibition.
The mark [4] stands for this setting: pH 7, read-out: L-Lactate Oxidase Percent Inhibition.

With `O=C(O)CC(O)C(=O)O` (centres unmarked) [Malic Acid], the “inhibition of lactate oxidase activity (in words)” value at L-Lactate Oxidase is reported as “little or no inhibition”. In addition, the inhibition at 5000 µM at L-Lactate Oxidase (setting [3]) turned out to be 0%.

On to `O=C(O)CCC(=O)C(=O)O` [α-Ketoglutaric Acid], for which the “inhibition of lactate oxidase activity (in words)” value at L-Lactate Oxidase is “little or no inhibition”. The inhibition at 5000 µM at L-Lactate Oxidase (setting [4]) was 0%.

With `O=C(O)C(O)C(=O)O` [Tartronic Acid], the inhibition at 5000 µM on L-Lactate Oxidase (setting [3]) turned out to be 10%.

Turning to `CC(O)CC(=O)O` (stereo not drawn) [β-Hydroxybutyric Acid], the “inhibition of lactate oxidase activity (in words)” value at L-Lactate Oxidase is on record as “little or no inhibition”. The inhibition at 5000 µM on L-Lactate Oxidase (setting [3]) amounted to 0%.

`O=C(O)CC(=O)O` [Malonic Acid]: the inhibition at 5000 µM at L-Lactate Oxidase (setting [3]) worked out at 30%. In addition, at L-Lactate Oxidase, the “inhibition of the enzymatic activity of lactate oxidase” value was less than 50%.

Regarding `O=C(O)C(O)CO` (racemic) [Glyceric Acid], the inhibition at 5000 µM on L-Lactate Oxidase (setting [3]) is 21%. The “inhibition of the enzymatic activity of lactate oxidase” value at L-Lactate Oxidase is reported as less than 50%.

For the compound `COCC(=O)O` [Methoxyacetic Acid], at L-Lactate Oxidase, the “inhibition of lactate oxidase activity (in words)” value is listed as “little or no inhibition”. The inhibition at 5000 µM on L-Lactate Oxidase (setting [4]) came to 0%.

`NC(=O)C(N)=O` [Oxamide]: at L-Lactate Oxidase (setting [3]), the inhibition at 5000 µM worked out at 43%. Also, the “inhibition of the enzymatic activity of lactate oxidase” value against L-Lactate Oxidase is less than 50%.

Consider `CCC(O)C(=O)O` (stereo not drawn) [α-Hydroxybutyric Acid], for which the inhibition at 5000 µM at L-Lactate Oxidase (setting [3]) was 7%. The “inhibition of the enzymatic activity of lactate oxidase” value against L-Lactate Oxidase is less than 50%.

In the case of `NC(=O)C(=O)O` [Oxamic Acid], the inhibition at 5000 µM on L-Lactate Oxidase (setting [3]) is 40%. Also, on L-Lactate Oxidase, the “inhibition of the enzymatic activity of lactate oxidase” value was less than 50%.

Turning to `O=C(O)C(=O)O` [Oxalic Acid], the “inhibition of lactate oxidase activity (in words)” value against L-Lactate Oxidase is “greatly inhibit”. Further, the inhibition at 10000 µM was 94% at L-Lactate Oxidase and 100% in assay [1]. The inhibition at 5000 µM at L-Lactate Oxidase (setting [3]) is 94%; in assay [2] it was 0%. Also, the “inhibition of L-α-GPO (in words)” value in assay [2] is on record as “do not inhibit”.

As to `NCC(=O)O` [Glycine], on L-Lactate Oxidase, the “inhibition of lactate oxidase activity (in words)” value is “little or no inhibition”. Also, the inhibition at 5000 µM on L-Lactate Oxidase (setting [4]) was 0%.

As to `CC(O)C(N)=O` (centres unmarked) [Lactamide], the “inhibition of lactate oxidase activity (in words)” value against L-Lactate Oxidase is given as “little or no inhibition”. Moreover, at L-Lactate Oxidase (setting [3]), the inhibition at 5000 µM was 0%.

Take `O=CC(=O)O` [Glyoxalic Acid]: at L-Lactate Oxidase, the “inhibition of lactate oxidase activity (in words)” value is “inhibited the enzyme” and the inhibition at 10000 µM came out at 100%. The inhibition at 5000 µM at L-Lactate Oxidase (setting [3]) worked out at 100%. In assay [1], the inhibition at 10000 µM stood at 15%. In assay [2], the “inhibition of L-α-GPO (in words)” value is recorded as “inhibited L-α-GPO as well” and the inhibition at 5000 µM was 100%.
